Experimental findings from patent US8084466B2, “Bicyclic heteroaryl-substituted imidazoles as modulators of the histamine H4 receptor” (Janssen Pharmaceutica NV, priority 2007, dated 2011) are described below.

For this experiment, the target named is T1, human histamine H4 receptor (Homo sapiens, UniProt Q9H3N8).
T1 construct: expressed in transfected cells; host or cells: SK-N-MC cells or COS7 cells, transient transfection with pH4R; cell membranes
The experiment is described as follows: Binding Assay on Recombinant Human Histamine H4 Receptor. The settings on record: competition binding with 3H-histamine (5 nM; KD 5 nM), membranes of SK-N-MC or COS7 cells expressing human H4 receptor; average of results; > = highest value tested. The protocol:
Biological Methods: Binding Assay on Recombinant Human Histamine H4 Receptor
SK-N-MC cells or COS7 cells were transiently transfected with pH4R and grown in 150 cm^2 tissue culture dishes. Cells were washed with saline solution, scraped with a cell scraper and collected by centrifugation (1000 rpm, 5 min). Cell membranes were prepared by homogenization of the cell pellet in 20 mM Tris-HCl with a polytron tissue homogenizer for 10 sec at high speed. Homogenate was centrifuged at 1000 rpm for 5 min at 4° C. The supernatant was then collected and centrifuged at 20,000×g for 25 min at 4° C. The final pellet was resuspended in 50 mM Tris-HCl. Cell membranes were incubated with ^3H-histamine (5-70 nM) in the presence or absence of excess histamine (10,000 nM). Incubation occurred at room temperature for […]. Membranes were harvested by rapid filtration over Whatman GF/C filters and washed 4 times with ice-cold 50 mM Tris HCl. Filters were then dried, mixed with scintillant and counted for radioactivity. SK-N-MC or COS7 cells expressing human histamine H4 receptor were used to measure the affinity of binding of other compounds and their ability to displace ^3H-ligand binding by incubating the above-described reaction in the presence of various concentrations of inhibitor or compound to be tested. For competition binding studies using ^3H-histamine, Ki values were calculated, based on an experimentally determined KD value of 5 nM and a ligand concentration of 5 nM, according to Y.-C.

T1 sequence (Q9H3N8 whole entry): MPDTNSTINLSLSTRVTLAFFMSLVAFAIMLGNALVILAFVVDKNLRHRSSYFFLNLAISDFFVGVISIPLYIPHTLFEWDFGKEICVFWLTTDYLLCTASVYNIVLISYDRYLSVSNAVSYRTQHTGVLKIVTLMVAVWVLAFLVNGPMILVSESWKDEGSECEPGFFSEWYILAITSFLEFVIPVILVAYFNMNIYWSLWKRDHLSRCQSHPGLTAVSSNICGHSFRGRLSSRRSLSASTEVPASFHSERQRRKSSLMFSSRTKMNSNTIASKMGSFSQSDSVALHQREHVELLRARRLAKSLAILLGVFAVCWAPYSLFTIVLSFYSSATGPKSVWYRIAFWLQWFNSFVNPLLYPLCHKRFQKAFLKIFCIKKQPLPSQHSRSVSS

As usually defined, the Ki is the dissociation constant of the complex between target and ligand, obtained from inhibition or displacement. Take `Cc1cccc2[nH]c(-c3ccc4ccn(CCCCC5CCN(C)CC5)c4c3)nc12` [Example 27, 4-Methyl-2-{1-[4-(1-methyl-piperidin-4-yl)-butyl]-1H-indol-6-yl}-1H-benzoimidazole]: the Ki turned out to be 750 nM.

As for `CN1CCC(CCCn2cc(Cl)c3cc(-c4nc5cc(C(C)(C)C)ccc5[nH]4)ccc32)CC1` [Example 28, 5-tert-Butyl-2-{3-chloro-1-[3-(1-methyl-piperidin-4-yl)-propyl]-1H-indol-5-yl}-1H-benzoimidazole], the Ki turned out to be 349 nM.

Consider `Cc1cc(Cl)cc2[nH]c(-c3ccc4c(c3)c(Cl)cn4CCCC3CCN(C)CC3)nc12` [Example 29, 6-Chloro-2-{3-chloro-1-[3-(1-methyl-piperidin-4-yl)-propyl]-1H-indol-5-yl}-4-methyl-1H-benzoimidazole], for which the Ki is 1670 nM.

`CN1CCC(CCCCn2cc(Cl)c3c(-c4nc5cc(C(F)(F)F)ccc5[nH]4)cccc32)CC1` [Example 30, 2-{3-Chloro-1-[4-(1-methyl-piperidin-4-yl)-butyl]-1H-indol-4-yl}-5-trifluoromethyl-1H-benzoimidazole]: the Ki turned out to be 47 nM.

`Cc1c(F)ccc2[nH]c(-c3cccc4c3c(Cl)cn4CCCCC3CCN(C)CC3)nc12` [Example 31, 2-{3-Chloro-1-[4-(1-methyl-piperidin-4-yl)-butyl]-1H-indol-4-yl}-5-fluoro-4-methyl-1H-benzoimidazole]: the Ki was determined as 118 nM.

`CN1CCC(CCCCn2cc(Cl)c3c(-c4nc5cc(F)c(F)cc5[nH]4)cccc32)CC1` [Example 32, 2-{3-Chloro-1-[4-(1-methyl-piperidin-4-yl)-butyl]-1H-indol-4-yl}-5,6-difluoro-1H-benzoimidazole]: the Ki is 599 nM.

In the case of `Cc1c(F)ccc2[nH]c(-c3ccc4c(ccn4CCCN4CCNCC4)c3)nc12` [Example 33, 5-Fluoro-4-methyl-2-[1-(3-piperazin-1-yl-propyl)-1H-indol-5-yl]-1H-benzoimidazole], the Ki stood at 1290 nM.

Turning to `CC(C)(C)c1ccc2[nH]c(-c3ccc4c(c3)c(Cl)cn4CCCC3CCNCC3)nc2c1` [Example 34, 5-tert-Butyl-2-[3-chloro-1-(3-piperidin-4-yl-propyl)-1H-indol-5-yl]-1H-benzoimidazole], the Ki turned out to be 2000 nM.

Regarding `Cc1c(F)ccc2[nH]c(-c3cccc4c3ccn4CCCCC3CCNCC3)nc12` [Example 35, 5-Fluoro-4-methyl-2-[1-(4-piperidin-4-yl-butyl)-1H-indol-4-yl]-1H-benzoimidazole], the Ki came to 683 nM.

As to `Clc1cccc2[nH]c(-c3cccc4c3ccn4CCCCC3CCNCC3)nc12` [Example 36, 4-Chloro-2-[1-(4-piperidin-4-yl-butyl)-1H-indol-4-yl]-1H-benzoimidazole], the Ki turned out to be 2330 nM.

Turning to `Cc1cc(C)c2nc(-c3ccc4ccn(CCCCC5CCNCC5)c4c3)[nH]c2c1` [Example 37, 4,6-Dimethyl-2-[1-(4-piperidin-4-yl-butyl)-1H-indol-6-yl]-1H-benzoimidazole], the inhibition constant Ki was 2230 nM.

As to `Cc1c(F)ccc2[nH]c(-c3ccc4ccn(CCCCC5CCNCC5)c4c3)nc12` [Example 38, 5-Fluoro4-methyl-2-[1-(4-piperidin-4-yl-butyl)-1H-indol-6-yl]-1H-benzoimidazole], the inhibition constant Ki amounted to 1140 nM.

On to `CN(C)Cc1cn(CCCCC2CCNCC2)c2ccc(-c3nc4cc(C(C)(C)C)ccc4[nH]3)cc12` [Example 39, [5-(5-tert-Butyl-1H-benzoimidazol-2-yl)-1-(4-piperidin-4-yl-butyl)-1H-indol-3-ylmethyl]-dimethyl-amine], for which the Ki was 2920 nM.

For `Cc1c(F)ccc2[nH]c(-c3ccc4c(c3)ncn4CCCC3CCN(C)CC3)nc12` [Example 40, 5-Fluoro-4-methyl-1′-[3-(1-methyl-piperidin-4-yl)-propyl]-1H,1′H-[2,5′]bibenzoimidazolyl], the inhibition constant Ki stood at 65 nM.

Take `Cc1c(F)ccc2[nH]c(-c3ccc4ncn(CCCC5CCN(C)CC5)c4c3)nc12` [Example 41, 5-Fluoro-4-methyl-3′-[3-(1-methyl-piperidin-4-yl)-propyl]-1H,3′H-[2,5′]bibenzoimidazolyl]: the Ki amounted to 397 nM.

Turning to `Cc1cccc2[nH]c(-c3ccc4c(c3)ncn4CCCCC3CCN(C)CC3)nc12` [Example 42, 4-Methyl-1′-[4-(1-methyl-piperidin-4-yl)-butyl]-1H,1′H-[2.5′]bibenzoimidazolyl], the Ki turned out to be 2000 nM.

`Cc1cccc2[nH]c(-c3ccc4ncn(CCCCC5CCN(C)CC5)c4c3)nc12` [Example 43, 4-Methyl-3′-[4-(1-methyl-piperidin-4-yl)-butyl]-1H,3′H-[2,5′]bibenzoimidazolyl]: the Ki came to 1670 nM.

In the case of `Cc1c(F)ccc2[nH]c(-c3ccc4c(c3)ncn4CCCCC3CCN(C)CC3)nc12` [Example 44, 5-Fluoro-4-methyl-1′-[4-(1-methyl-piperidin-4-yl)-butyl]-1H,1′H-[2.5′]bibenzoimidazolyl], the inhibitory constant (Ki) turned out to be 3000 nM.

Regarding `Cc1c(F)ccc2[nH]c(-c3ccc4ncn(CCCCC5CCN(C)CC5)c4c3)nc12` [Example 45, 5-Fluoro-4-methyl-3′-[4-(1-methyl-piperidin-4-yl)-butyl]-1H,3′H-[2,5′]bibenzoimidazolyl], the Ki came out at 1670 nM.

Turning to `Cc1c(F)ccc2[nH]c(-c3cnc4c(ccn4CCCC4CCN(C)CC4)c3)nc12` [Example 46, 5-Fluoro-4-methyl-2-{1-[3-(1-methyl-piperidin-4-yl)-propyl]-1H-pyrrolo[2,3-b]pyridin-5-yl}-1H-benzoimidazole], the Ki is 12 nM.

For the compound `Cc1ccc2[nH]c(-c3cnc4c(ccn4CCCC4CCN(C)CC4)c3)nc2c1C` [Example 47, 4,5-Dimethyl-2-{1-[3-(1-methyl-piperidin-4-yl)-propyl]-1H-pyrrolo[2,3-b]pyridin-5-yl}-1H-benzoimidazole], the Ki was determined as 56 nM.

As to `CN1CCC(CCCn2ccc3cc(-c4nc5c(F)cc(F)cc5[nH]4)c(Cl)cc32)CC1` [Example 48, 2-{6-Chloro-1-[3-(1-methyl-piperidin-4-yl)-propyl]-1H-indol-5-yl}-4,6-difluoro-1H-benzoimidazole], the Ki stood at 1030 nM.

Consider `Cc1c(F)ccc2[nH]c(-c3cc4ccn(CCCC5CCNCC5)c4cc3Cl)nc12` [Example 49, 2-[6-Chloro-1-(3-piperidin-4-yl-propyl)-1H-indol-5-yl]-5-fluoro-4-methyl-1H-benzoimidazole], for which the inhibition constant (Ki) was determined as 1730 nM.

For the compound `Cc1c(F)ccc2[nH]c(-c3cc4ccn(CCCC5CCN(C)CC5)c4cc3Cl)nc12` [Example 50, 2-{6-Chloro-1-[3-(1-methyl-piperidin-4-yl)-propyl]-1H-indol-5-yl}-5-fluoro-4-methyl-1H-benzoimidazole], the Ki was 3330 nM.

For `Cc1c(F)ccc2[nH]c(-c3ccc4c(ncn4CCCC4CCN(C)CC4)c3C)nc12` [Example 51, 5-Fluoro-4,4′-dimethyl-1′-[3-(1-methyl-piperidin-4-yl)-propyl]-1H,1′H-[2,5′]bibenzoimidazolyl], the Ki was 7 nM.

Turning to `Cc1ccc2[nH]c(-c3ccc4c(ncn4CCCC4CCN(C)CC4)c3C)nc2c1C` [Example 52, 5,4′-Trimethyl-1′-[3-(1-methyl-piperidin-4-yl)-propyl]-1H,1′H-[2,5′]bibenzoimidazolyl], the Ki was found to be 33 nM.

Turning to `Cc1cccc2[nH]c(-c3ccc4c(ncn4CCCC4CCN(C)CC4)c3C)nc12` [Example 53, 4,4′-Dimethyl-1′-[3-(1-methyl-piperidin-4-yl)-propyl]-1H,1′H-[2,5′]bibenzoimidazolyl], the Ki was determined as 15 nM.

`Cc1c(Cl)ccc2[nH]c(-c3ccc4c(ncn4CCCC4CCN(C)CC4)c3C)nc12` [Example 54, 5-Chloro-4,4′-dimethyl-1′-[3-(1-methyl-piperidin-4-yl)-propyl]-1H ,1′H-[2,5′]bibenzoimidazolyl]: the Ki worked out at 1 nM.

As for `Cc1cc(F)cc2[nH]c(-c3ccc4c(ncn4CCCC4CCN(C)CC4)c3C)nc12` [Example 55, 6-Fluoro-4,4′-dimethyl-1′-[3-(1-methyl-piperidin-4-yl)-proyl]-1H,1′H-[2,5′]bibenzoimidazolyl], the Ki was 4 nM.

Consider `Cc1ccc2[nH]c(-c3ccc4c(c3)CCN4CCCC3CCNCC3)nc2c1C` [Example 56, 4,5-Dimethyl-2-[1-(3-piperidin-4-yl-propyl)-2,3-dihydro-1H-indol-5-yl]-1H-benzoimidazole], for which the Ki was 1900 nM.

For `Cc1cc(C)c2nc(-c3ccc4c(c3C)CCN4CCCC3CCN(C)CC3)[nH]c2c1` [Example 57, 4,6-Dimethyl-2-{4-methyl-1-[3-(1-methyl-piperidin-4-yl)-propyl]-2,3-dihydro-1H-indol-5-yl}-1H-benzoimidazole], the inhibitory constant (Ki) stood at 5 nM.

Turning to `Cc1c(-c2nc3cc(Cl)ccc3[nH]2)ccc2c1CCN2CCCC1CCN(C)CC1` [Example 58, 5-Chloro-2-{4-methyl-1-[3-(1-methyl-piperidin-4-yl)-propyl]-2,3-dihydro-1H-indol-5-yl}-1H-benzoimidazole], the Ki is 19 nM.

Take `Cc1c(-c2nc3c(C)cc(F)cc3[nH]2)ccc2c1CCN2CCCC1CCN(C)CC1` [Example 59, 6-Fluoro-4-methyl-2-{4-methyl-1-[3-(1-methyl-piperidin-4-yl)-propyl]-2,3-dihydro-1H-dihydro-1H-indol-5-yl}-1H-benzoimidazole]: the Ki was 18 nM.
